Assay results as given in PubChem BioAssay (NCI).
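In this assay, cells in 96-well plates receive the compound at five concentrations for 48 hours. Endpoints are linearly interpolated between the surrounding concentrations. GI50 is the concentration that inhibits growth by half. TGI denotes the concentration required for complete inhibition of growth.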

Columns and labels:
Assay in all cases: growth of human tumour cells (NCI), 48 h
A498 renal = test system: A498 renal
HCT-116 colon = test system: HCT-116 colon
KM12 colon = test system: KM12 colon
NCI-H226 lung = test system: NCI-H226 lung
NCI-H23 lung = test system: NCI-H23 lung
OVCAR-4 ovarian = test system: OVCAR-4 ovarian
SR leukemia = test system: SR leukemia
TK-10 renal = test system: TK-10 renal
UACC-62 melanoma = test system: UACC-62 melanoma
MDA-MB-231 breast = test system: MDA-MB-231 breast

| Compound | TGI (A498 renal) | TGI (HCT-116 colon) | TGI (KM12 colon) | TGI (NCI-H226 lung) | TGI (NCI-H23 lung) | TGI (OVCAR-4 ovarian) | TGI (SR leukemia) | TGI (TK-10 renal) | TGI (UACC-62 melanoma) | TGI (MDA-MB-231 breast) | GI50 (HCT-116 colon) | GI50 (KM12 colon) | GI50 (MDA-MB-231 breast) | GI50 (NCI-H226 lung) | GI50 (NCI-H23 lung) | GI50 (OVCAR-4 ovarian) | GI50 (SR leukemia) | GI50 (TK-10 renal) | GI50 (UACC-62 melanoma) | GI50 (A498 renal) |
| --- | --- | --- | --- | --- | --- | --- | --- | --- | --- | --- | --- | --- | --- | --- | --- | --- | --- | --- | --- | --- |
| CC(Oc1ccc2c(-c3ccc(Cl)cc3)cc(=O)oc2c1)C(=O)O (stereo not drawn) | > 100 µM | > 100 µM | > 100 µM | > 100 µM | > 100 µM | > 100 µM | > 100 µM | > 100 µM | > 100 µM | – | – | – | – | – | – | – | – | – | – | – |
| O=[N+]([O-])c1nccn1CC(O)c1ccccc1 (stereo not drawn) | > 100 µM | – | > 100 µM | > 100 µM | > 100 µM | > 100 µM | – | > 100 µM | > 100 µM | – | – | – | – | – | – | – | – | – | – | – |
| COc1ccc(/C=C/c2cc(OC)c(OC(C)=O)c(OC)c2)cc1 | – | > 100 µM | – | 96.6 µM | 61.4 µM | > 100 µM | – | – | 42.8 µM | – | – | – | – | – | – | – | – | – | – | – |
| CSC(=NC(=O)c1ccccc1Cl)SCCSC(=NC(=O)c1ccccc1Cl)SC | > 100 µM | > 100 µM | > 100 µM | > 100 µM | > 100 µM | > 100 µM | – | > 100 µM | > 100 µM | – | – | – | – | – | – | – | – | – | – | – |
| CCOC(=O)C12CCCC1(O)N(NC(=O)OC)C(C)=C2C(=O)OC (stereo not drawn) | > 100 µM | > 100 µM | > 10 µM | > 100 µM | > 100 µM | > 100 µM | – | > 100 µM | > 100 µM | – | – | – | – | – | – | – | – | – | – | – |
| Cc1cc(OCc2nnc3n2S(=O)(=O)c2ccccc2N3C)ccc1Cl | 55.3 µM | > 100 µM | > 100 µM | > 100 µM | > 100 µM | 24.2 µM | – | > 100 µM | 52.9 µM | 41.7 µM | – | – | – | – | – | – | – | – | – | – |
| O=C(C[n+]1ccccc1)N/N=C(/CCC(=O)N(Cc1ccccc1)Cc1ccccc1)CC(=O)c1ccccc1 | > 100 µM | > 100 µM | > 100 µM | > 100 µM | > 100 µM | > 100 µM | > 100 µM | > 100 µM | > 100 µM | – | – | – | – | – | – | – | – | – | – | – |
| C(=N\Nc1ncc(-c2cc3cc4c(cc3o2)OCO4)s1)/c1ccco1 | – | 4.03 µM | 5.14 µM | 18.9 µM | 4.22 µM | 12.2 µM | 25.3 µM | 24.7 µM | 14.5 µM | 3.83 µM | 1.57 µM | 1.85 µM | 1.64 µM | 3.67 µM | 1.51 µM | 1.27 µM | 1.29 µM | 3.38 µM | 3.81 µM | – |
| CSC(=O)C[C@@]12O[C@@H]([C@@H](C)C3CCC4[C@@H]5C(O)CC6=CC(=O)C=C[C@]6(C)C5CC[C@@]43C)C[C@](C)(O1)C(C)(C)O2 (stereo partly drawn) | 31.5 µM | 26.4 µM | 32.9 µM | 38.7 µM | – | 28.3 µM | 34.8 µM | 34.8 µM | 27 µM | – | – | – | – | – | – | – | – | – | – | – |
| COc1ccc2c(c1)c(-c1nc(-c3cn(C)c4ccncc34)cs1)cn2C | 20.4 µM | – | 3.41 µM | 3.75 µM | 3.45 µM | 4.62 µM | – | 3.06 µM | 4.78 µM | 3.53 µM | – | 1.84 µM | 1.83 µM | 1.83 µM | 1.81 µM | 2.1 µM | – | 1.49 µM | 2.09 µM | 6.59 µM |
| COc1ccc(CC(=O)NCCc2ccc(OC)c(OC)c2OC)cc1 | > 100 µM | > 100 µM | > 100 µM | > 100 µM | > 100 µM | – | > 100 µM | > 100 µM | – | – | – | – | – | – | – | – | – | – | – | – |
| [N-]=[N+]=NCN1C(=O)C2C3C=CC(C2C1=O)C1C2C(=O)N(CN=[N+]=[N-])C(=O)C2C31 (stereo not drawn) | – | > 100 µM | > 100 µM | – | > 100 µM | – | – | > 100 µM | > 100 µM | – | – | – | – | – | – | – | – | – | – | – |
| C=C(C)[C@@H]1CC[C@]2(CO)CC[C@]3(C)[C@H](CC[C@@H]4[C@@]5(C)CCCNC(C)(C)[C@@H]5CC[C@]43C)[C@@H]12 | 5.63 µM | 2.63 µM | 3.24 µM | 4.09 µM | 3.39 µM | – | – | 3.5 µM | 3.25 µM | 3.21 µM | 1.29 µM | 1.73 µM | 1.77 µM | 1.98 µM | 1.71 µM | – | – | 1.76 µM | 1.82 µM | 2.17 µM |
| CSc1cc([C@@H]2C[C@H]2c2ccc(Cl)cc2)on1 | – | 67.8 µM | 30.3 µM | 36.8 µM | 18.1 µM | > 100 µM | – | 31.5 µM | 24.7 µM | 21.7 µM | 17.4 µM | 14.5 µM | 5.51 µM | 11.4 µM | 3.98 µM | 31.3 µM | – | 12.5 µM | 11.3 µM | – |
| COC(=O)CCC(=O)Nc1ccc(Cl)cc1C | > 79 µM | > 100 µM | > 100 µM | > 100 µM | > 100 µM | > 100 µM | > 100 µM | > 100 µM | > 100 µM | – | – | – | – | – | – | – | – | – | – | – |
| COc1cnc2c(c1)C(=O)c1c-2n(CCCN2CCCC2)c(=O)c2cc([N+](=O)[O-])ccc12 | – | 0.144 µM | 1.77 µM | 0.715 µM | 1.25 µM | 10.5 µM | 1.34 µM | 14.1 µM | 0.631 µM | 2.65 µM | < 0.01 µM | 0.139 µM | 0.683 µM | 0.104 µM | 0.0272 µM | 0.0848 µM | < 0.01 µM | 0.373 µM | 0.0153 µM | – |
| COc1ccc(C(=O)C2CCC(C(=O)O)C2)cc1 (stereo not drawn) | > 100 µM | > 100 µM | > 100 µM | > 100 µM | > 100 µM | > 100 µM | > 100 µM | > 100 µM | > 100 µM | – | – | – | – | – | – | – | – | – | – | – |
| CC(=O)OC12C(C)=C(C)C(=O)N1c1ccccc1N2C(C)=O (stereo not drawn) | – | > 100 µM | > 100 µM | > 100 µM | > 100 µM | > 100 µM | > 100 µM | > 100 µM | > 100 µM | – | – | – | – | – | – | – | – | – | – | – |
| CCCCCCCCCCCCSC(=S)c1c(C)[nH]n(-c2ccccc2)c1=O | > 50 µM | – | – | > 50 µM | 35.8 µM | > 50 µM | – | > 50 µM | 25.9 µM | – | – | – | – | – | – | – | – | – | – | – |
| Nc1nc(=O)n(C2CCC(CO)O2)cc1F (stereo not drawn) | – | – | > 100 µM | > 100 µM | > 100 µM | > 100 µM | – | > 100 µM | – | – | – | – | – | – | – | – | – | – | – | – |
| CC(C)(C)C(=O)N1C(C(=O)O)Cc2ccccc2[C@@H]1Cc1ccccc1 (stereo partly drawn) | > 100 µM | > 100 µM | > 100 µM | > 100 µM | > 100 µM | > 100 µM | – | > 100 µM | > 100 µM | – | – | – | – | – | – | – | – | – | – | – |
| Cc1ccc(OCC2CO2)c(Br)c1 (stereo not drawn) | > 100 µM | 73.3 µM | > 100 µM | 34.1 µM | 76.7 µM | 29.4 µM | – | > 100 µM | 37.7 µM | 58 µM | – | – | – | – | – | – | – | – | – | – |
